# Molecular target: T1, recombinant human NK3 receptor (Homo sapiens, UniProt P29371)
# T1 construct: expressed in transfected cells; host or cells: HEK293 cells (transient expression), membranes
# T1 sequence (P29371 1-465): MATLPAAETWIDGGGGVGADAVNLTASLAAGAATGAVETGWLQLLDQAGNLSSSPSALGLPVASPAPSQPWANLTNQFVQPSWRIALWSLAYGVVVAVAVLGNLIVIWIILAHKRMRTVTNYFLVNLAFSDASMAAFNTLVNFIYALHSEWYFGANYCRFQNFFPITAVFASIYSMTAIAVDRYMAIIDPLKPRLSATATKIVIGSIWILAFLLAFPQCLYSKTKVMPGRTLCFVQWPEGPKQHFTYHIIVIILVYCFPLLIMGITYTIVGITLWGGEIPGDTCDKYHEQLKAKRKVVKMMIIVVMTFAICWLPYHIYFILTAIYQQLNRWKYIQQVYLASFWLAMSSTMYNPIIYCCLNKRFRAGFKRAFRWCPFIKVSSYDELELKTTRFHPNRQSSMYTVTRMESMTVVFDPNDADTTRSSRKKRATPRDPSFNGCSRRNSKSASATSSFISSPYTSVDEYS
# Assay: [3H]SR142801 competition binding assay
# Conditions: [3H]SR142801, membranes from HEK293 cells transiently expressing recombinant human NK3 receptor; read-out: hNK3 Ki
# Method in brief: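 Membranes from HEK293 cells transiently expressing human NK3 were incubated 75 min at RT with [3H]SR142801 at its KD and inhibitor (0.0003-10 μM) in Tris-HCl pH 7.4/MnCl2/phosphoramidon/BSA. Nonspecific binding used 10 μM SB222200. Ki from Hill-fitted IC50 via Cheng-Prusoff, duplicate determinations.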
row,Structure (SMILES),Ki
1,"COc1cc(CN(C)C(=O)C(C)(CCN2CCN(S(C)(=O)=O)[C@@H](C)C2)c2ccc(Cl)c(Cl)c2)ccc1OC(F)F (stereo partly drawn) [Example 66, 2-(3,4-Dichloro-phenyl)-N-(4-difluoromethoxy-3-methoxy-benzyl)-4-((S)-4-methanesulfonyl-3-methyl-piperazin-1-yl)-2,N-dimethyl-butyramide]",277 nM
2,"Cc1ccc(CN(C)C(=O)C(C)(CCN2CCN(S(C)(=O)=O)[C@@H](C)C2)c2ccc(Cl)c(Cl)c2)cc1 (stereo partly drawn) [Example 67, 2-(3,4-Dichloro-phenyl)-4-((S)-4-methanesulfonyl-3-methyl-piperazin-1-yl)-2,N-dimethyl-N-(4-methyl-benzyl)-butyramide]",99.2 nM
3,"C[C@H]1CN(CCC(C)(C(=O)NCc2ccc(N(C)C)cc2)c2ccc(Cl)c(Cl)c2)CCN1S(C)(=O)=O (stereo partly drawn) [Example 68, 2-(3,4-Dichloro-phenyl)-N-(4-dimethylamino-benzyl)-4-((S)-4-methanesulfonyl-3-methyl-piperazin-1-yl)-2-methyl-butyramide]",734 nM
4,"C[C@H]1CN(CCC(C)(C(=O)NCc2ccc(Cl)c(Cl)c2)c2ccc(Cl)c(Cl)c2)CCN1S(C)(=O)=O (stereo partly drawn) [Example 72, N-(3,4-Dichloro-benzyl)-2-(3,4-dichloro-phenyl)-4-((S)-4-methanesulfonyl-3-methyl-piperazin-1-yl)-2-methyl-butyramide]",42.9 nM
5,"C[C@H]1CN(CCC(C)(C(=O)NCc2cccc(OC(F)F)c2)c2ccc(Cl)c(Cl)c2)CCN1S(C)(=O)=O (stereo partly drawn) [Example 73, 2-(3,4-Dichloro-phenyl)-N-(3-difluoromethoxy-benzyl)-4-((S)-4-methanesulfonyl-3-methyl-piperazin-1-yl)-2-methyl-butyramide]",300 nM
6,"C[C@H]1CN(CCC(C)(C(=O)NCc2cc(F)ccc2C(F)(F)F)c2ccc(Cl)c(Cl)c2)CCN1S(C)(=O)=O (stereo partly drawn) [Example 74, 2-(3,4-Dichloro-phenyl)-N-(5-fluoro-2-trifluoromethyl-benzyl)-4-((S)-4-methanesulfonyl-3-methyl-piperazin-1-yl)-2-methyl-butyramide]",496 nM
7,"C[C@H]1CN(CCC(C)(C(=O)NCc2ccc(C(F)(F)F)cc2)c2ccc(Cl)c(Cl)c2)CCN1S(C)(=O)=O (stereo partly drawn) [Example 75, 2-(3,4-Dichloro-phenyl)-4-((S)-4-methanesulfonyl-3-methyl-piperazin-1-yl)-2-methyl-N-(4-trifluoromethyl-benzyl)-butyramide]",68.1 nM
8,"C[C@H]1CN(CCC(C)(C(=O)NCc2cc(C(F)(F)F)ccc2F)c2ccc(Cl)c(Cl)c2)CCN1S(C)(=O)=O (stereo partly drawn) [Example 76, 2-(3,4-Dichloro-phenyl)-N-(2-fluoro-5-trifluoromethyl-benzyl)-4-((S)-4-methanesulfonyl-3-methyl-piperazin-1-yl)-2-methyl-butyramide]",311 nM
9,"CC(NC(=O)C(C)(CCN1CCN(S(C)(=O)=O)[C@@H](C)C1)c1ccc(Cl)c(Cl)c1)c1ccc(Cl)cc1 (stereo partly drawn) [Example 77, N-[1-(4-Chloro-phenyl)-ethyl]-2-(3,4-dichloro-phenyl)-4-((S)-4-methanesulfonyl-3-methyl-piperazin-1-yl)-2-methyl-butyramide]",67.4 nM
10,"COc1cccc(CN(C)C(=O)C(C)(CCN2CCN(S(C)(=O)=O)[C@@H](C)C2)c2ccc(Cl)c(Cl)c2)c1 (stereo partly drawn) [Example 78, 2-(3,4-Dichloro-phenyl)-4-((S)-4-methanesulfonyl-3-methyl-piperazin-1-yl)-N-(3-methoxy-benzyl)-2,N-dimethyl-butyramide]",611 nM
11,"C[C@H]1CN(CCC(C)(C(=O)N(C)Cc2ccccc2Cl)c2ccc(Cl)c(Cl)c2)CCN1S(C)(=O)=O (stereo partly drawn) [Example 79, N-(2-Chloro-benzyl)-2-(3,4-dichloro-phenyl)-4-((S)-4-methanesulfonyl-3-methyl-piperazin-1-yl)-2,N-dimethyl-butyramide]",168 nM
12,"CC(NC(=O)C(C)(CCN1CCN(S(C)(=O)=O)[C@@H](C)C1)c1ccc(Cl)c(Cl)c1)c1ccc(Cl)c(Cl)c1 (stereo partly drawn) [Example 80, 2-(3,4-Dichloro-phenyl)-N-[1-(3,4-dichloro-phenyl)-ethyl]-4-((S)-4-methanesulfonyl-3-methyl-piperazin-1-yl)-2-methyl-butyramide]",16.2 nM
13,"C[C@H]1CN(CCC(C)(C(=O)NCc2cccc(OC(F)(F)F)c2)c2ccc(Cl)c(Cl)c2)CCN1S(C)(=O)=O (stereo partly drawn) [Example 81, 2-(3,4-Dichloro-phenyl)-4-((S)-4-methanesulfonyl-3-methyl-piperazin-1-yl)-2-methyl-N-(3-trifluoromethoxy-benzyl)-butyramide]",126 nM
14,"C[C@H]1CN(CCC(C)(C(=O)NCc2ccc(Cl)c(F)c2)c2ccc(Cl)c(Cl)c2)CCN1S(C)(=O)=O (stereo partly drawn) [Example 82, N-(4-Chloro-3-fluoro-benzyl)-2-(3,4-dichloro-phenyl)-4-((S)-4-methanesulfonyl-3-methyl-piperazin-1-yl)-2-methyl-butyramide]",94.2 nM
15,"C[C@H]1CN(CCC(C)(C(=O)N(C)Cc2ccc(Cl)cc2)c2ccc(Cl)c(Cl)c2)CCN1S(C)(=O)=O (stereo partly drawn) [Example 86, N-(4-Chloro-benzyl)-2-(3,4-dichloro-phenyl)-4-((S)-4-methanesulfonyl-3-methyl-piperazin-1-yl)-2,N-dimethyl-butyramide]",66.3 nM
16,"C[C@H]1CN(CCC(C)(C(=O)N(C)Cc2cccc(Cl)c2)c2ccc(Cl)c(Cl)c2)CCN1S(C)(=O)=O (stereo partly drawn) [Example 88, N-(3-Chloro-benzyl)-2-(3,4-dichloro-phenyl)-4-((S)-4-methanesulfonyl-3-methyl-piperazin-1-yl)-2,N-dimethyl-butyramide]",107 nM
17,"C[C@H]1CN(CCC(C)(C(=O)N(C)Cc2cccc(F)c2)c2ccc(Cl)c(Cl)c2)CCN1S(C)(=O)=O (stereo partly drawn) [Example 89, 2-(3,4-Dichloro-phenyl)-N-(3-fluoro-benzyl)-4-((S)-4-methanesulfonyl-3-methyl-piperazin-1-yl)-2,N-dimethyl-butyramide]",266 nM
18,"C[C@H]1CN(CCC(C)(C(=O)N(C)Cc2ccc(C(F)(F)F)nc2)c2ccc(Cl)c(Cl)c2)CCN1S(C)(=O)=O (stereo partly drawn) [Example 90, 2-(3,4-Dichloro-phenyl)-4-((S)-4-methanesulfonyl-3-methyl-piperazin-1-yl)-2,N-dimethyl-N-(6-trifluoromethyl-pyridin-3-ylmethyl)-butyramide]",525 nM

# The remaining molecules from weak to strong by Ki, led by results:
row,Ki,Structure (SMILES)
1,906 nM,"C[C@H]1CN(CCC(C)(C(=O)NCc2ccc(C(F)(F)F)nc2)c2ccc(Cl)c(Cl)c2)CCN1S(C)(=O)=O (stereo partly drawn) [Example 91, 2-(3,4-Dichloro-phenyl)-4-((S)-4-methanesulfonyl-3-methyl-piperazin-1-yl)-2-methyl-N-(6-trifluoromethyl-pyridin-3-ylmethyl)-butyramide]"
2,57.1 nM,"C[C@H]1CN(CCC(C)(C(=O)NCc2ccc(OC(F)(F)F)cc2)c2ccc(Cl)c(Cl)c2)CCN1S(C)(=O)=O (stereo partly drawn) [Example 83, 2-(3,4-Dichloro-phenyl)-4-((S)-4-methanesulfonyl-3-methyl-piperazin-1-yl)-2-methyl-N-(4-trifluoromethoxy-benzyl)-butyramide]"
3,52 nM,"C[C@H]1CN(CCC(C)(C(=O)N(C)Cc2cccc(C(F)(F)F)c2)c2ccc(Cl)c(Cl)c2)CCN1S(C)(=O)=O (stereo partly drawn) [Example 87, 2-(3,4-Dichloro-phenyl)-4-((S)-4-methanesulfonyl-3-methyl-piperazin-1-yl)-2,N-dimethyl-N-(3-trifluoromethyl-benzyl)-butyramide]"
4,45.2 nM,"C[C@H]1CN(CCC(C)(C(=O)NCc2ccc(Cl)c(C(F)(F)F)c2)c2ccc(Cl)c(Cl)c2)CCN1S(C)(=O)=O (stereo partly drawn) [Example 84, N-(4-Chloro-3-trifluoromethyl-benzyl)-2-(3,4-dichloro-phenyl)-4-((S)-4-methanesulfonyl-3-methyl-piperazin-1-yl)-2-methyl-butyramide]"
5,27.7 nM,"C[C@H]1CN(CCC(C)(C(=O)N(C)Cc2ccc(C(F)(F)F)cc2)c2ccc(Cl)c(Cl)c2)CCN1S(C)(=O)=O (stereo partly drawn) [Example 85, 2-(3,4-Dichloro-phenyl)-4-((S)-4-methanesulfonyl-3-methyl-piperazin-1-yl)-2,N-dimethyl-N-(4-trifluoromethyl-benzyl)-butyramide]"
6,19.2 nM,"C[C@H]1CN(CCC(C)(C(=O)N(C)Cc2ccc(C(F)(F)F)c(F)c2)c2ccc(Cl)c(Cl)c2)CCN1S(C)(=O)=O (stereo partly drawn) [Example 70, 2-(3,4-Dichloro-phenyl)-N-(3-fluoro-4-trifluoromethyl-benzyl)-4-((S)-4-methanesulfonyl-3-methyl-piperazin-1-yl)-2,N-dimethyl-butyramide]"
7,12.5 nM,"C[C@H]1CN(CCC(C)(C(=O)N(C)Cc2ccc(Cl)c(Cl)c2)c2ccc(Cl)c(Cl)c2)CCN1S(C)(=O)=O (stereo partly drawn) [Example 71, N-(3,4-Dichloro-benzyl)-2-(3,4-dichloro-phenyl)-4-((S)-4-methanesulfonyl-3-methyl-piperazin-1-yl)-2,N-dimethyl-butyramide]"
8,11.4 nM,"C[C@H]1CN(CCC(C)(C(=O)N(C)Cc2ccc(Cl)c(C(F)(F)F)c2)c2ccc(Cl)c(Cl)c2)CCN1S(C)(=O)=O (stereo partly drawn) [Example 69, N-(4-Chloro-3-trifluoromethyl-benzyl)-2-(3,4-dichloro-phenyl)-4-((S)-4-methanesulfonyl-3-methyl-piperazin-1-yl)-2,N-dimethyl-butyramide]"
